The text below walks through data of patent US20120142771A1, “BIPHENYLACETAMIDE DERIVATIVE” (Dainippon Sumitomo Pharma Co., Ltd., priority 2008, published 2012).

The experiment deals with Crl: CD (SD) male rats. Kind of experiment: Evaluation of antidepressant effect (forced swimming, duration of immobility). The class given is in vivo. An excerpt: Meanwhile, there are no reports about animal models which provide a good clinical prediction to evaluate the improving efficacy for bipolar disorder. However, bipolar disorder comprises “manic state” and “depressive state”, and some animals are reported to be useful as a model to evaluate the improvement of each pathological condition individually. In general, an index of manic state is excessive hyperactivity induced by administering methamphetamine and chlordiazepoxide in combination, and that of depressive state is immobility induced by forced swimming.
Test 6: Evaluation of Antidepressant Effect
Test 6 is a typical test to evaluate the antidepressant activity of medicaments (Porsolt et al., Nature, 266: 730-732, 1977, Porsolt et al., Eur. J. Pharmacol., 47: 379-391, 1978). Crl: CD (SD) male rats (12 rats in each group, body weight 200-250 g) were forced to swim for 15 minutes in a water pool with 200 mm diameter. In the pool, water was filled up to a depth of 205 mm from the bottom of the pool, and thus the rats could not touch the bottom of the pool with their hind limbs. Fifteen minutes after the completion of the forced swimming, test compounds were orally administered to the rats. On the next day, the test compounds were administered to the rats at the same dose as the previous day, and the rats were put in the pool for 5 minutes at the same clock time as the previous day. […] The antidepressant effect was evaluated by calculating how long the duration of immobility was shortened against the control. To the control, 0.5% methylcellulose solution was administered.

Each structure is given as a SMILES string.

With `NC(=O)Cc1ccccc1-c1ccccc1F` [Example 1, 2-(2′-Fluorobiphenyl-2-yl)acetamide], the “The rate of the shortened duration of immobility (% control)” value reads like this: (10 mg/kg oral) 23.4 % control; (30 mg/kg oral) 24.9 % control.
